Test results reported in patent publication US11725002B2, “Detection reagents and kit for identifying oxidized state and glycated state of low-density lipoproteins” (FUSO PHARMACEUTICAL INDUSTRIES, LTD., priority 2017, dated 2023).

Assays:
lipid radicals in LDL = test: Fluorescence detection of lipid radicals in LDL with NBD-Pen
Method: To a solution of 20 μg protein/ml of LDL and 10 μM of NBD-Pen in phosphate buffered saline (PBS) containing 0.5% of MeCN were added 0-3 μM of CuSO4, FeSO4 or Hemin, to generate lipid radicals.
Specifically, to a solution of 20 μg protein/ml of LDL and 10 μM of NBD-Pen in phosphate buffered saline (PBS; pH 7.4) containing 0.5% of MeCN were added 0-3 μM of Hemin, to generate lipid radicals. After incubation for 60 minutes at 37° C., these reacted solutions were investigated by the respective methods.
For fluorescence detection using NBD-Pen according to the present invention, the fluorescence intensities obtained in Example 1 were expressed as ratios based on the results without addition of Hemin.

[1] = test system: plaques of thoracic aorta; test: Fluorescence mapping of lipid oxide in aorta of arteriosclerosis model mouse; assay type: in vivo, Apo-E knockout mouse; settings: high fat diet 3 weeks, 500 μM/kg intraperitoneal, 15 minutes after administration, 470 nm/530 nm
Method: A 6-week-old male Apo-E knockout mouse (Apo−/−) was fed with a high fat diet, and 3 weeks later, NBD-Pen was administered at 500 μM/kg by intraperitoneal injection.
Fifteen minutes after NBD-Pen administration, the mouse was subjected to three types of mixed anesthesia and sacrificed, and the thoracic aorta was immediately removed. […] An oil red stained image of plaques of the same aortic sample was taken with a digital camera (FIG. 7b).

[2] = Lipid peroxide (LOOH) detection in LDL with fluorescent probe DPPP; settings: concentration range used in Example 2
Method: The absorption band around 234 nm of conjugated dienes formed during lipid oxidation was tracked by absorbance spectrophotometry. In addition, a measurement was performed by use of diphenyl-1-pyrenylphosphate (DPPP), which is a lipid peroxide (LOOH) detection fluorescent probe.

Molecule | fluorescence intensities (λex: 470 nm, λem: 530 nm) (lipid radicals in LDL; 20 μg protein/ml LDL, 10 μM NBD-Pen, 0-3 μM CuSO4, FeSO4 or Hemin, 60 minutes at 37° C.) | sensitivity of fluorescence detection (lipid radicals in LDL; Hemin addition, compared with Cu2+ and Fe2+) | match of NBD-Pen fluorescence areas with oil-red stained plaques [1] | detection of lipid peroxides [2]
2,2,6-trimethyl-4-(4-nitrobenzo[1,2,5]oxadiazol-7-ylamino)-6-pentylpiperadine-1-oxyl [NBD-Pen] | increased in a concentration-dependent manner | high sensitivity of fluorescence detection | completely matched | –
O=P(Oc1ccccc1)(Oc1ccccc1)Oc1ccc2ccc3cccc4ccc1c2c34 [DPPP, diphenyl-1-pyrenylphosphate] | – | – | – | neither method could detect lipid peroxides
